Test: xn = mol fraction of the nth substance listed
Settings: 100 kPa, Liquid; for mass density: Vibrating tube method; for viscosity: Falling or rolling sphere viscometry

CCCCCCCCCCC [undecane] + CCCO
Settings | mass density [kg/m3] | viscosity [mPa·s]
323.15 K, x1 = 0.1003 | 762.28 | –
323.15 K, x1 = 0.2009 | 750.73 | –
323.15 K, x1 = 0.3004 | 742.26 | –
323.15 K, x1 = 0.3997 | 735.82 | –
323.15 K, x1 = 0.4998 | 730.81 | –
323.15 K, x1 = 0.6005 | 726.72 | –
323.15 K, x1 = 0.6974 | 723.59 | –
323.15 K, x1 = 0.8 | 721.01 | –
323.15 K, x1 = 0.8963 | 719.09 | –
323.15 K, x1 = 1 | 718.11 | –
328.15 K, x1 = 0.1003 | 758.02 | 0.885
328.15 K, x1 = 0.2009 | 746.49 | 0.811
328.15 K, x1 = 0.3004 | 738.04 | 0.76
328.15 K, x1 = 0.3997 | 731.64 | 0.723
328.15 K, x1 = 0.4998 | 726.68 | 0.698
328.15 K, x1 = 0.6005 | 722.64 | 0.681
328.15 K, x1 = 0.6974 | 719.57 | 0.669
328.15 K, x1 = 0.8 | 717.05 | 0.665
328.15 K, x1 = 0.8963 | 715.21 | 0.669
328.15 K, x1 = 1 | 714.39 | 0.692
333.15 K, x1 = 0.1003 | 753.7 | 0.805
333.15 K, x1 = 0.2009 | 742.18 | 0.741
333.15 K, x1 = 0.3004 | 733.76 | 0.698
333.15 K, x1 = 0.3997 | 727.41 | 0.668
333.15 K, x1 = 0.4998 | 722.5 | 0.648
333.15 K, x1 = 0.6005 | 718.52 | 0.634
333.15 K, x1 = 0.6974 | 715.51 | 0.625
333.15 K, x1 = 0.8 | 713.06 | 0.623
333.15 K, x1 = 0.8963 | 711.3 | 0.628
333.15 K, x1 = 1 | 710.68 | 0.651
338.15 K, x1 = 0.1003 | 749.3 | 0.734
338.15 K, x1 = 0.2009 | 737.8 | 0.68
338.15 K, x1 = 0.3004 | 729.43 | 0.645
338.15 K, x1 = 0.3997 | 723.12 | 0.619
338.15 K, x1 = 0.4998 | 718.27 | 0.604
338.15 K, x1 = 0.6005 | 714.36 | 0.593
338.15 K, x1 = 0.6974 | 711.41 | 0.586
338.15 K, x1 = 0.8 | 709.04 | 0.586
338.15 K, x1 = 0.8963 | 707.37 | 0.592
338.15 K, x1 = 1 | 706.95 | 0.615
343.15 K, x1 = 0.1003 | 744.8 | 0.672
343.15 K, x1 = 0.2009 | 733.33 | 0.626
343.15 K, x1 = 0.3004 | 725.01 | 0.596
343.15 K, x1 = 0.3997 | 718.77 | 0.576
343.15 K, x1 = 0.4998 | 713.98 | 0.563
343.15 K, x1 = 0.6005 | 710.14 | 0.555
343.15 K, x1 = 0.6974 | 707.27 | 0.551
343.15 K, x1 = 0.8 | 704.99 | 0.552
343.15 K, x1 = 0.8963 | 703.43 | 0.558
343.15 K, x1 = 1 | 703.22 | 0.58
348.15 K, x1 = 0.1003 | 740.24 | 0.617
348.15 K, x1 = 0.2009 | 728.8 | 0.578
348.15 K, x1 = 0.3004 | 720.53 | 0.553
348.15 K, x1 = 0.3997 | 714.34 | 0.537
348.15 K, x1 = 0.4998 | 709.64 | 0.527
348.15 K, x1 = 0.6005 | 705.88 | 0.522
348.15 K, x1 = 0.6974 | 703.09 | 0.519
348.15 K, x1 = 0.8 | 700.9 | 0.521
348.15 K, x1 = 0.8963 | 699.45 | 0.528
348.15 K, x1 = 1 | 699.47 | 0.549
353.15 K, x1 = 0.1003 | 735.57 | 0.568
353.15 K, x1 = 0.2009 | 724.18 | 0.535
353.15 K, x1 = 0.3004 | 715.97 | 0.515
353.15 K, x1 = 0.3997 | 709.86 | 0.502
353.15 K, x1 = 0.4998 | 705.23 | 0.495
353.15 K, x1 = 0.6005 | 701.57 | 0.492
353.15 K, x1 = 0.6974 | 698.86 | 0.49
353.15 K, x1 = 0.8 | 696.77 | 0.492
353.15 K, x1 = 0.8963 | 695.46 | 0.501
353.15 K, x1 = 1 | 695.72 | 0.522
358.15 K, x1 = 0.1003 | 730.81 | 0.525
358.15 K, x1 = 0.2009 | 719.45 | 0.497
358.15 K, x1 = 0.3004 | 711.32 | 0.481
358.15 K, x1 = 0.3997 | 705.29 | 0.471
358.15 K, x1 = 0.4998 | 700.75 | 0.466
358.15 K, x1 = 0.6005 | 697.19 | 0.465
358.15 K, x1 = 0.6974 | 694.58 | 0.463
358.15 K, x1 = 0.8 | 692.62 | 0.467
358.15 K, x1 = 0.8963 | 691.44 | 0.476
358.15 K, x1 = 1 | 691.96 | 0.497
363.15 K, x1 = 0.1003 | 725.93 | 0.4864
363.15 K, x1 = 0.2009 | 714.64 | 0.4635
363.15 K, x1 = 0.3004 | 706.59 | 0.4506
363.15 K, x1 = 0.3997 | 700.67 | 0.443
363.15 K, x1 = 0.4998 | 696.22 | 0.4401
363.15 K, x1 = 0.6005 | 692.77 | 0.4396
363.15 K, x1 = 0.6974 | 690.27 | 0.4398
363.15 K, x1 = 0.8 | 688.42 | 0.4438
363.15 K, x1 = 0.8963 | 687.41 | 0.4531
363.15 K, x1 = 1 | 688.18 | 0.475

Source: the NIST ThermoML archive (doi:10.1021/acs.jced.6b00121)
